The target of the experiment is human mGlu4 receptor (Homo sapiens (Human), UniProt Q14833). The experiment can be described thus: Intracellular Ca2+ mobilization assay (FLIPR), mGlu4 NAM. Type of experiment: cell-based. As to conditions: HEK-293 cells stably transfected with human mGlu4; inhibition of L-AP4 (EC80) response; IC50. How it is done: 2.1) Intracellular Ca^2+ Mobilization Assay (FLIPR)
Sequence of human mGlu4 receptor (Q14833 33-912): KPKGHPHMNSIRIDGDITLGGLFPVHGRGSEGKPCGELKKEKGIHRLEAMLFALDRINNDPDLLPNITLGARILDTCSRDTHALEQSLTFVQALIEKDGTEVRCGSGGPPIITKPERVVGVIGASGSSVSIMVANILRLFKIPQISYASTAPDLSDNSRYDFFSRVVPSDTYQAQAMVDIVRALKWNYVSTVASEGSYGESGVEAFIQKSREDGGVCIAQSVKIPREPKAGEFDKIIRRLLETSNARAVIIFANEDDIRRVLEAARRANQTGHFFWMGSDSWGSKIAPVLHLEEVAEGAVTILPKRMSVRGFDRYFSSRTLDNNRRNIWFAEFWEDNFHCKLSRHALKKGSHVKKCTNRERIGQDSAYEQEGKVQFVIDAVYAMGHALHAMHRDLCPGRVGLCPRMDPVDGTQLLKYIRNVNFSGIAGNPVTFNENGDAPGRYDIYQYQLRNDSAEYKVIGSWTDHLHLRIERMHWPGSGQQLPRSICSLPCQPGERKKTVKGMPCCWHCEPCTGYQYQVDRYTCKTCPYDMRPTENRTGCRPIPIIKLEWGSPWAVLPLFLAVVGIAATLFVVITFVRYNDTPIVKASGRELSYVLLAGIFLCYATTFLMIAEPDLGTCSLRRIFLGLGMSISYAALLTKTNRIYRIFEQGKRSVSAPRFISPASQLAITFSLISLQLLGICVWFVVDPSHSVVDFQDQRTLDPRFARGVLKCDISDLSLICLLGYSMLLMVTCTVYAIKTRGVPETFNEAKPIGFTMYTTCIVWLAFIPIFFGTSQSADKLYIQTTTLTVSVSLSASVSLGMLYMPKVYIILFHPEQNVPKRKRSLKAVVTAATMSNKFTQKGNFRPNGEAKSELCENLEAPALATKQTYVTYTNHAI
A monoclonal HEK-293 cell line stably transfected with a cDNA encoding for the human mGlu4 receptor was generated. Cells were cultured according to standard protocols (Freshney, 2000) in Dulbecco's Modified Eagle Medium with high glucose supplemented with 1 mM glutamine, 10% (vol/vol) heat-inactivated bovine calf serum, penicillin/streptomycin, 50 μg/ml hygromycin and 15 μg/ml blasticidin (all cell culture reagents and antibiotics from Invitrogen, Basel, Switzerland).
About 24 hrs before an experiment, 5×10^4 cells/well were seeded in poly-D-lysine coated, black/clear-bottomed 96-well plates. The cells were loaded with 2.5 μM Fluo-4AM in loading buffer (1×HBSS, 20 mM HEPES) for 1 hr at 37° C. and washed five times with loading buffer. The cells were transferred into a Functional Drug Screening System 7000 (Hamamatsu, Paris, France), and 11 half logarithmic serial dilutions of test compound at 37° C. were added and the cells were incubated for 10-30 min. with on-line recording of fluorescence. Following this pre-incubation step, the agonist (2S)-2-amino-4-phosphonobutanoic acid (L-AP4) was added to the cells at a concentration corresponding to EC80 with on-line recording of fluorescence; in order to account for day-to-day variations in the responsiveness of cells, the EC80 of L-AP4 was determined immediately ahead of each experiment by recording of a full dose-response curve of L-AP4.
Responses were measured as peak increase in fluorescence minus basal (i.e. fluorescence without addition of L-AP4), normalized to the maximal stimulatory effect obtained with saturating concentrations of L-AP4. Graphs were plotted with the % maximal stimulatory using XLfit, a curve fitting program that iteratively plots the data using Levenburg Marquardt algorithm. The single site competition analysis equation used was y=A+((B-A)/(1+((x/C)D))), where y is the % maximal stimulatory effect, A is the minimum y, B is the maximum y, C is the IC50, x is the log 10 of the concentration of the competing compound and D is the slope of the curve (the Hill Coefficient). From these curves the IC50 (drug concentration at which 50% of the receptor activation achieved from the addition of L-AP4 in the experiment was inhibited), the Hill coefficient as well as the maximal response in % of the maximal stimulatory effect obtained with saturating concentrations of L-AP4 were calculated (see FIG. 1).
In general terms: Calcium assays in cells follow changes in intracellular calcium, usually with a dye or a luminescent sensor.
For the compound `O=S(=O)(Nc1c(F)cc(C#Cc2ccccc2)cc1F)c1ccccn1` [Example 10, N-[2,6-difluoro-4-(2-phenylethynyl)phenyl]pyridine-2-sulfonamide], the EC50 (in general, the midpoint of the concentration-response curve) turned out to be 14300 nM.

Turning to `O=S(=O)(Nc1c(F)cc(C#Cc2ccccc2)cc1F)c1cccc(F)c1Cl` [Example 17, 2-chloro-N-[2,6-difluoro-4-(2-phenylethynyl)phenyl]-3-fluoro-benzenesulfonamide], the concentration for a half-maximal effect (EC50) was 734 nM. `Cc1c(Cl)cc(F)cc1S(=O)(=O)Nc1c(F)cc(C#Cc2cncc(F)c2)cc1F` [Example 53, 3-chloro-N-[2,6-difluoro-4-[2-(5-fluoro-3-pyridyl)ethynyl]phenyl]-5-fluoro-2-methyl-benzenesulfonamide] showed an EC50 of 523 nM. Compound `O=S(=O)(Nc1c(F)cc(C#Cc2cncc(F)c2)cc1F)c1ccccc1Cl` [Example 12, 2-chloro-N-[2,6-difluoro-4-[2-(5-fluoro-3-pyridyl)ethynyl]phenyl]benzenesulfonamide] had an EC50 of 2960 nM. As to `Cn1nccc1S(=O)(=O)Nc1c(F)cc(C#Cc2ccccc2)cc1F` [Example 25, N-[2,6-difluoro-4-(2-phenylethynyl)phenyl]-1-methyl-1H-pyrazole-5-sulfonamide], the EC50 stood at 1060 nM. Compared with the last compound, the EC50 is about 2.8-fold lower. Take `Cc1c(Cl)cccc1S(=O)(=O)Nc1c(F)cc(C#Cc2cncc(Cl)c2)cc1F` [Example 55, 3-chloro-N-(4-((5-chloropyridin-3-yl)ethynyl)-2,6-difluorophenyl)-2-methylbenzenesulfonamide]: the response was half-maximal at 1920 nM (EC50). As for `O=S(=O)(Nc1c(F)cc(C#Cc2cncc(F)c2)cc1F)c1cccc(Cl)c1` [Example 14, 3-chloro-N-[2,6-difluoro-4-[2-(5-fluoro-3-pyridyl)ethynyl]phenyl]benzenesulfonamide], a half-maximal response (EC50) required 1050 nM. The value for `Cn1ccc(S(=O)(=O)Nc2c(F)cc(C#Cc3ccccc3)cc2F)n1` [Example 26, N-[2,6-difluoro-4-(2-phenylethynyl)phenyl]-1-methyl-pyrazole-3-sulfonamide] was 16000 nM; that for `O=S(=O)(Nc1c(F)cc(C#Cc2ccccc2)cc1F)c1cccc2ncoc12` [Example 34, N-[2,6-difluoro-4-(2-phenylethynyl)phenyl]-1,3-benzoxazole-7-sulfonamide] was 6560 nM; that for `Cc1cc(F)c(C)c(S(=O)(=O)Nc2c(F)cc(C#Cc3cccc(F)c3)cc2F)c1` [Example 45, N-[2,6-difluoro-4-[2-(3-fluorophenyl)ethynyl]phenyl]-3-fluoro-2,5-dimethyl-benzenesulfonamide] was 1320 nM.

`O=S(=O)(Nc1c(F)cc(C#Cc2ccccc2)cc1F)c1cccnc1Cl` [Example 22, 2-chloro-N-[2,6-difluoro-4-(2-phenylethynyl)phenyl]pyridine-3-sulfonamide]: the EC50 is 4330 nM. For `CC(C)(C)c1cnn(-c2cc(F)c(NS(=O)(=O)c3cc(Cl)cc(Cl)c3)c(F)c2)c1` [Example 60, N-[4-(4-tert-butylpyrazol-1-yl)-2,6-difluoro-phenyl]-3,5-dichloro-benzenesulfonamide], a half-maximal response (EC50) required 6720 nM.

On to `O=S(=O)(Nc1c(F)cc(C#Cc2ccccc2)cc1F)c1cccc(Cl)c1F` [Example 35, 3-chloro-N-[2,6-difluoro-4-(2-phenylethynyl)phenyl]-2-fluoro-benzenesulfonamide], for which the EC50 turned out to be 1610 nM. The value for `O=S(=O)(Nc1c(F)cc(C#Cc2ccccc2)cc1F)c1ccccc1F` [Example 6, N-[2,6-difluoro-4-(2-phenylethynyl)phenyl]-2-fluoro-benzenesulfonamide] was 4640 nM; that for `CC(C)(C)c1cnn(-c2cc(F)c(NS(=O)(=O)c3ccccc3Cl)c(F)c2)c1` [Example 58, N-[4-(4-tert-butylpyrazol-1-yl)-2,6-difluoro-phenyl]-2-chloro-benzenesulfonamide] was 13000 nM. The value for `Cc1cccc(S(=O)(=O)Nc2c(F)cc(C#Cc3ccccc3)cc2F)c1` [Example 36, N-[2,6-difluoro-4-(2-phenylethynyl)phenyl]-3-methyl-benzenesulfonamide] was 5020 nM; that for `Cc1ccc(C)c(S(=O)(=O)Nc2c(F)cc(C#Cc3ccccc3)cc2F)c1` [Example 30, N-[2,6-difluoro-4-(2-phenylethynyl)phenyl]-2,5-dimethyl-benzenesulfonamide] was 1340 nM. `Cc1c(F)cccc1S(=O)(=O)Nc1c(F)cc(C#Cc2ccccc2)cc1F` [Example 37, N-[2,6-difluoro-4-(2-phenylethynyl)phenyl]-3-fluoro-2-methyl-benzenesulfonamide] yielded an EC50 of 1050 nM. As for `O=S(=O)(Nc1c(F)cc(C#Cc2ccccc2)cc1F)c1cncc(Cl)c1` [Example 23, 5-chloro-N-[2,6-difluoro-4-(2-phenylethynyl)phenyl]pyridine-3-sulfonamide], the 50% effective concentration (EC50) amounted to 3110 nM.

Take `Cc1ccccc1S(=O)(=O)Nc1c(F)cc(C#Cc2ccccc2)cc1F` [Example 5, N-[2,6-difluoro-4-(2-phenylethynyl)phenyl]-2-methyl-benzenesulfonamide]: the EC50 came to 3720 nM. The EC50 values of the last two compounds are within 1.5-fold of each other.

For the compound `O=S(=O)(Nc1c(F)cc(C#Cc2ccccc2)cc1F)c1ccccc1Cl` [Example 1, 2-chloro-N-[2,6-difluoro-4-(2-phenylethynyl)phenyl]benzenesulfonamide], the EC50 is 4280 nM. Take `COc1c(Cl)cccc1S(=O)(=O)Nc1c(F)cc(C#Cc2cncc(F)c2)cc1F` [Example 15, 3-chloro-N-[2,6-difluoro-4-[2-(5-fluoro-3-pyridyl)ethynyl]phenyl]-2-methoxy-benzenesulfonamide]: the EC50 is 778 nM.

Regarding `COc1c(F)cccc1S(=O)(=O)Nc1c(F)cc(C#Cc2ccccc2)cc1F` [Example 46, N-[2,6-difluoro-4-(2-phenylethynyl)phenyl]-3-fluoro-2-methoxy-benzenesulfonamide], the EC50 worked out at 2110 nM. The value for `O=S(=O)(Nc1c(F)cc(C#Cc2ccccc2)cc1F)c1cccc(Cl)c1C(F)(F)F` [Example 21, 3-chloro-N-[2,6-difluoro-4-(2-phenylethynyl)phenyl]-2-(trifluoromethyl)benzenesulfonamide] was 15300 nM; that for `Cc1cc(F)c(C)c(S(=O)(=O)Nc2c(F)cc(C#Cc3cc(F)cc(F)c3)cc2F)c1` [Example 49, N-[4-[2-(3,5-difluorophenyl)ethynyl]-2,6-difluoro-phenyl]-3-fluoro-2,5-dimethyl-benzenesulfonamide] was 902 nM; that for `O=S(=O)(Nc1c(F)cc(C#Cc2ccccc2)cc1F)c1cccnc1` [Example 7, N-[2,6-difluoro-4-(2-phenylethynyl)phenyl]pyridine-3-sulfonamide] was 4670 nM.

In turn, `O=S(=O)(Nc1c(F)cc(C#Cc2ccccc2)cc1F)c1cncc(F)c1` [Example 24, N-[2,6-difluoro-4-(2-phenylethynyl)phenyl]-5-fluoropyridine-3-sulfonamide] registered an EC50 of 2050 nM.

Take `COc1ccc(Cl)c(S(=O)(=O)Nc2c(F)cc(C#Cc3ccccc3)cc2F)c1` [Example 18, 2-chloro-N-[2,6-difluoro-4-(2-phenylethynyl)phenyl]-5-methoxy-benzenesulfonamide]: the EC50 is 3940 nM. The value for `O=S(=O)(Nc1c(F)cc(C#Cc2ccccc2)cc1F)c1cccc(C(F)(F)F)c1Cl` [Example 33, 2-chloro-N-[2,6-difluoro-4-(2-phenylethynyl)phenyl]-3-(trifluoromethyl)benzenesulfonamide] was 2080 nM; that for `COc1cccc(S(=O)(=O)Nc2c(F)cc(C#Cc3ccccc3)cc2F)c1Cl` [Example 27, 2-chloro-N-[2,6-difluoro-4-(2-phenylethynyl)phenyl]-3-methoxy-benzenesulfonamide] was 8430 nM.

`Cc1ccncc1S(=O)(=O)Nc1c(F)cc(C#Cc2ccccc2)cc1F` [Example 31, N-[2,6-difluoro-4-(2-phenylethynyl)phenyl]-4-methyl-pyridine-3-sulfonamide] registered an EC50 of 1400 nM. Consider `Cc1cc(F)c(C)c(S(=O)(=O)Nc2c(F)cc(C#Cc3ccccc3)cc2F)c1` [Example 40, N-[2,6-difluoro-4-(2-phenylethynyl)phenyl]-3-fluoro-2,5-dimethyl-benzenesulfonamide], for which a half-maximal effect (EC50) was put at 808 nM.
